Experimental data as given in US5607926A, “Cephalosporin antibiotics” (Microcide Pharmaceuticals, Inc., priority 1995, dated 1997).
≈ marks a conversion by molar mass, not a printed value. Counter-ions that a name gives are not always drawn. Like-named read-outs stand apart in the source and are kept apart here.

Legend:
Format in all cases: cell-based
[1] = tested on: S. aureus Col8A (Meth^S)(lac^-); experiment: In vitro antibacterial evaluation, MIC by agar dilution, S. aureus Col8A; settings: Staphylococcus aureus
Procedure, shortened: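 Agar dilution per NCCLS (1991): two-fold dilutions from 128 μg/mL down to ≤0.25 μg/mL in Mueller-Hinton agar, each level in duplicate. Spots of about 10^4 cfu of log-phase culture; 16-20 h at 35°-36° C. MIC in μg/ml is the lowest concentration inhibiting growth.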

E. faecalis ATCC 29212 = experiment: In vitro antibacterial evaluation, MIC by agar dilution, E. faecalis ATCC 29212; settings: Enterococcus faecalis, ATCC29212; E. faecalis ATCC 29212; read-out: MIC
Procedure, shortened: (§1)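 Agar dilution MIC (μg/mL) on Mueller-Hinton agar following NCCLS: twofold compound series from 128 μg/mL down to ≤0.25 μg/mL, each level in duplicate. Spots of about 10^4 cfu from log-phase cultures were incubated 16-20 h at 35-36 °C. MIC was the lowest concentration inhibiting growth.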

[2] = tested on: S. aureus 76 (Meth^R)(lac^+); experiment: In vitro antibacterial evaluation, MIC by agar dilution, S. aureus 76; settings: Staphylococcus aureus, read-out: MIC
Procedure, shortened: as §1

E. coli ATCC 25922 = experiment: In vitro antibacterial evaluation, MIC by agar dilution, E. coli ATCC 25922; settings: Escherichia coli, ATCC25922, read-out: MIC
Procedure, shortened: as §1

S. aureus ATCC 29213 = experiment: In vitro antibacterial evaluation, MIC by agar dilution, S. aureus ATCC 29213; settings: Staphylococcus aureus, ATCC29213
Procedure, shortened: as §1

E. faecium ATCC 35667 = experiment: In vitro antibacterial evaluation, MIC by agar dilution, E. faecium ATCC 35667; settings: Enterococcus faecium, ATCC35667, read-out: MIC
Procedure, shortened: as §1

[3] = tested on: S. epidermidis ATCC 31432; experiment: In vitro antibacterial evaluation, MIC by agar dilution, S. epidermidis ATCC 31432; settings: Staphylococcus epidermidis, ATCC31432
Procedure, shortened: as §1

S. aureus ATCC 25923 = experiment: In vitro antibacterial evaluation, MIC by agar dilution, S. aureus ATCC 25923; settings: Staphylococcus aureus, ATCC25923
Experimental: The compounds of the invention were evaluated against several β-lactamresistant bacteria strains by determining the minimum inhibitory concentration (MIC, μg/ml) of each compound with respect to each strain. The MIC, the lowest concentration of antibiotic which inhibits growth of the test organism, was determined by the agar dilution method.
To determine the MIC for bacterial isolates, the test compound was incorporated in a series of two-fold dilutions into liquified Mueller-Hinton agar. Upon solidification, a number of different bacterial strains were spot inoculated with a replicating device onto the agar surface. […] The procedures used in these studies have been standardized by the National Committee for Clinical Laboratory Standards (NCCLS), as per the NCCLS publication entitled METHODS FOR DILUTION ANTIMICROBIAL SUSCEPTIBILITY TESTS (1991), which is incorporated herein by reference.
Aliquots of antimicrobial agents were prepared in phosphate buffered saline (PBS) at pH 7.2. Tween 20 or DMSO was used as a solubilizing vehicle as needed. Standard methods of vortexing, sonicating and gentle heat were used to facilitate solubilizing the test agent. Typically, the concentration of the stock solution was 10× that of the highest drug concentration tested. A 1.28 mg/mL stock solution was used with a subsequent highest working concentration of 128 μg/mL. Serial two-fold dilutions were done through ≤0.25 μg/mL. Each drug level was tested in duplicate. Two-fold drug dilutions were done in sterile 50 mL tubes with a final drug volume of 5 mL. Upon the addition of 45 mL of molten agar, a 10-fold dilution resulted. Two, 25 mL. plates were then poured into 15×150 mm square Petri plates with grids and allowed to harden.
A control plate with a reference drug, either cefotaxime, vancomycin or imipenem, was used as the positive growth control. Stock concentrations of reference antibiotics were prepared and frozen at -80° C. Upon preparation, the control plates were sealed and stored in the refrigerator for up to 1 week prior to use; however, imipenem control plates had to be prepared just prior to use. All test plates were used within 24 hours of preparation.
Satisfactory results were obtained where the inoculum contained about 10^4 colony forming units (cfu) ±0.5 logs. Starting with pure cultures of the test isolates on agar plates, a few isolated colonies were transferred to a tube of nutrient broth and allowed to grow 4-6 hours at 35°-36° C. to reach log-phase growth. Dropwise addition of the broth culture to PBS was done to match a 0.5 McFarland turbidity standard equal to 10^8 cfu/mL. This was further diluted ten-fold in PBS to reach a working inoculum concentration of 10^7 cfu/mL. When 1 μL of the working inoculum was applied to the agar surface a concentration of about 10^4 cfu per spot was obtained.
Disposable sterile 1 μL loops were used to inoculate test plates, with each isolate in a designated grid on the agar plate. An alternate method of inoculation involved the use of a replica plater, a device with 48 steel pins allowing the simultaneous inoculation of multiple isolates. After the spots had dried, the plates were incubated at 35°-36° C. for 16-20 hours. Endpoints were assessed as the minimum inhibitory concentration (MIC) of antimicrobial agent.

P. aeruginosa ATCC 27853 = experiment: In vitro antibacterial evaluation, MIC by agar dilution, P. aeruginosa ATCC 27853; settings: Pseudomonas aeruginosa, ATCC27853, read-out: MIC
Procedure, shortened: as §1

S. haemolyticus (Meth^R) = experiment: In vitro antibacterial evaluation, MIC by agar dilution, S. haemolyticus; settings: Staphylococcus haemolyticus, read-out: MIC
Procedure, shortened: as §1

[4] = S. aureus ATCC 29213, read-out: MIC

Row | Compound | MIC [1] | MIC (E. faecalis ATCC 29212) | MIC [2] | MIC (E. coli ATCC 25922) | MIC (S. aureus ATCC 29213; [4]) | MIC (E. faecium ATCC 35667) | MIC [3] | MIC (S. aureus ATCC 25923) | MIC (P. aeruginosa ATCC 27853) | MIC (S. haemolyticus (Meth^R)) | MIC ([3]; S. epidermidis ATCC 31432, read-out: MIC) | MIC (S. aureus ATCC 25923; S. aureus ATCC 25923, read-out: MIC) | MIC (S. aureus ATCC 29213)
1 | N#Cc1ccc(SC2=C(C(=O)O)N3C(=O)[C@@H](NC(=O)Cc4ccccc4)[C@H]3SC2)c(C#N)c1 [Cmpd 51, (7R)-7-[(Phenylacetyl)amino]-3-(2,4-dicyanophenylthio)-3-cephem-4-carboxylic acid] | < 0.25 µg/mL | 4 µg/mL (≈ 8.39 µM) | 8 µg/mL (≈ 16.8 µM) | > 32 µg/mL | 0.5 µg/mL (≈ 1.05 µM) | 4 µg/mL (≈ 8.39 µM) | < 0.25 µg/mL | < 0.25 µg/mL | > 32 µg/mL | 32 µg/mL (≈ 67.2 µM) | – | – | –
2 | N#CCC(=O)N[C@@H]1C(=O)N2C(C(=O)O)=C(Sc3ccccc3C#N)CS[C@H]12 [Cmpd 52, (7R)-7-[(Cyanoacetyl)amino]-3-(2-cyanophenylthio)-3-cephem-4-carboxylic acid] | 0.5 µg/mL (≈ 1.25 µM) | 4 µg/mL (≈ 9.99 µM) | 16 µg/mL (≈ 40 µM) | > 32 µg/mL | 0.5 µg/mL (≈ 1.25 µM) | 2 µg/mL (≈ 4.99 µM) | – | – | > 32 µg/mL | 16 µg/mL (≈ 40 µM) | < 0.25 µg/mL | < 0.25 µg/mL | –
3 | N=C(N)SCc1ccccc1SC1=C(C(=O)O)N2C(=O)[C@@H](NC(=O)Cc3ccccc3)[C@H]2SC1 [Cmpd 64, (7R)-7-[(Phenylacetyl)amino]-3-(2-isothiouroniummethylphenylthio)-3-cephem-4-carboxylate, inner salt] | < 0.25 µg/mL | 1 µg/mL | 4 µg/mL | > 32 µg/mL | – | 0.5 µg/mL | < 0.25 µg/mL | < 0.25 µg/mL | > 32 µg/mL | 8 µg/mL | – | – | < 0.25 µg/mL
4 | O=C(Cc1ccccc1)N[C@@H]1C(=O)N2C(C(=O)O)=C(Sc3ccc(CSc4ncn[nH]4)cc3)CS[C@H]12 [Cmpd 65, (7R)-7-[(Phenylacetyl)amino]-3-(4-(1,2,4-triazol-5-ylthiomethyl)phenylthio)-3-cephem-4-carboxylic acid] | < 0.25 µg/mL | 1 µg/mL (≈ 1.85 µM) | 32 µg/mL (≈ 59.3 µM) | > 32 µg/mL | – | 2 µg/mL (≈ 3.71 µM) | < 0.25 µg/mL | < 0.25 µg/mL | > 32 µg/mL | 32 µg/mL (≈ 59.3 µM) | – | – | < 0.25 µg/mL
5 | O=C(Cc1ccccc1)N[C@@H]1C(=O)N2C(C(=O)O)=C(Sc3ccccc3CSc3ncn[nH]3)CS[C@H]12 [Cmpd 67, (7R)-7-[(Phenylacetyl)amino]-3-(2-(1,2,4-triazol-5-ylthiomethyl)phenylthio)-3-cephem-4-carboxylic acid] | < 0.25 µg/mL | 2 µg/mL (≈ 3.71 µM) | 16 µg/mL (≈ 29.6 µM) | > 32 µg/mL | – | 2 µg/mL (≈ 3.71 µM) | < 0.25 µg/mL | < 0.25 µg/mL | > 32 µg/mL | 16 µg/mL (≈ 29.6 µM) | – | – | < 0.25 µg/mL
6 | O=C1CNC(SCc2ccccc2SC2=C(C(=O)O)N3C(=O)[C@@H](NC(=O)Cc4ccccc4)[C@H]3SC2)=N1 [Cmpd 68] | < 0.25 µg/mL | 4 µg/mL (≈ 7.21 µM) | 16 µg/mL (≈ 28.8 µM) | > 32 µg/mL | – | 4 µg/mL (≈ 7.21 µM) | < 0.25 µg/mL | < 0.25 µg/mL | > 32 µg/mL | 32 µg/mL (≈ 57.7 µM) | – | – | < 0.25 µg/mL
7 | CN(C)C(SCc1ccccc1SC1=C(C(=O)[O-])N2C(=O)[C@@H](NC(=O)Cc3ccccc3)[C@H]2SC1)=[N+](C)C [Cmpd 69, (7R)-7-[(Phenylacetyl)amino]-3-(2-tetramethylisothiouroniummethylphenylthio)-3-cephem-4-carboxylate, inner salt] | < 0.25 µg/mL | 2 µg/mL | 16 µg/mL | > 32 µg/mL | – | 2 µg/mL | < 0.25 µg/mL | < 0.25 µg/mL | > 32 µg/mL | 32 µg/mL | – | – | < 0.25 µg/mL
8 | O=C(Cc1ccccc1)N[C@@H]1C(=O)N2C(C(=O)O)=C(Sc3ccccc3CSc3ccncc3)CS[C@H]12 [Cmpd 70] | < 0.25 µg/mL | 0.5 µg/mL (≈ 0.91 µM) | 16 µg/mL (≈ 29.1 µM) | > 32 µg/mL | – | 2 µg/mL (≈ 3.64 µM) | < 0.25 µg/mL | < 0.25 µg/mL | > 32 µg/mL | 32 µg/mL (≈ 58.2 µM) | – | – | < 0.25 µg/mL
9 | Cn1nnnc1SCc1ccccc1SC1=C(C(=O)O)N2C(=O)[C@@H](NC(=O)Cc3ccccc3)[C@H]2SC1 [Cmpd 71] | < 0.25 µg/mL | 1 µg/mL (≈ 1.8 µM) | > 32 µg/mL | > 32 µg/mL | – | 2 µg/mL (≈ 3.61 µM) | < 0.25 µg/mL | < 0.25 µg/mL | > 32 µg/mL | > 32 µg/mL | – | – | < 0.25 µg/mL
10 | O=C(Cc1ccccc1)N[C@@H]1C(=O)N2C(C(=O)O)=C(Sc3ccccc3CSC3=NCCN3)CS[C@H]12 [Cmpd 72] | < 0.25 µg/mL | 1 µg/mL (≈ 1.85 µM) | 16 µg/mL (≈ 29.6 µM) | > 32 µg/mL | – | 2 µg/mL (≈ 3.7 µM) | < 0.25 µg/mL | < 0.25 µg/mL | > 32 µg/mL | 32 µg/mL (≈ 59.2 µM) | – | – | < 0.25 µg/mL
11 | C[n+]1ccc(SCc2ccccc2SC2=C(C(=O)[O-])N3C(=O)[C@@H](NC(=O)Cc4ccccc4)[C@H]3SC2)cc1 [Cmpd 73, (7R)-7-[(Phenylacetyl)amino]-3-(2-(N-methylpyridin-4-ium)thiomethyl)phenylthio)-3-cephem-4-carboxylate, inner salt] | < 0.25 µg/mL | 0.5 µg/mL | 16 µg/mL | > 32 µg/mL | – | 1 µg/mL | < 0.25 µg/mL | < 0.25 µg/mL | > 32 µg/mL | 32 µg/mL | – | – | < 0.25 µg/mL
12 | O=C(Cc1ccccc1)N[C@@H]1C(=O)N2C(C(=O)O)=C(Sc3cnnn3-c3ccccc3)CS[C@H]12 [Cmpd 91, (7R)-7-[(Phenylacetyl)amino]-3-(1-N-phenyl-1,2,3-triazol-5-ylthio)-3-cephem-4-carboxylic acid] | < 0.25 µg/mL | 1 µg/mL (≈ 2.03 µM) | 16 µg/mL (≈ 32.4 µM) | > 32 µg/mL | – | 2 µg/mL (≈ 4.05 µM) | < 0.25 µg/mL | < 0.25 µg/mL | > 32 µg/mL | > 32 µg/mL | – | – | –
13 | O=C(Cc1ccccc1)N[C@@H]1C(=O)N2C(C(=O)O)=C(Sc3nnnn3-c3ccccc3)CS[C@H]12 [Cmpd 94, (7R)-7-[(Phenylacetyl)amino]-3-(1-N-phenyltetrazol-5-ylthio)-3-cephem-4-carboxylic acid] | < 0.25 µg/mL | 1 µg/mL (≈ 2.02 µM) | 16 µg/mL (≈ 32.4 µM) | > 32 µg/mL | – | 2 µg/mL (≈ 4.04 µM) | < 0.25 µg/mL | < 0.25 µg/mL | > 32 µg/mL | > 32 µg/mL | – | – | –
14 | O=C(Cc1ccccc1)N[C@@H]1C(=O)N2C(C(=O)O)=C(Sc3ccccc3-c3cnco3)CS[C@H]12 [Cmpd 95, (7R)-7-[(Phenylacetyl)amino]-3-(2-oxazol-5-ylphenylthio)-3-cephem-4-carboxylic acid] | < 0.25 µg/mL | 4 µg/mL (≈ 8.1 µM) | 8 µg/mL (≈ 16.2 µM) | > 32 µg/mL | – | 4 µg/mL (≈ 8.1 µM) | < 0.25 µg/mL | < 0.25 µg/mL | > 32 µg/mL | 16 µg/mL (≈ 32.4 µM) | – | – | –
